{
  "source": "ChEMBL document CHEMBL1152829",
  "about": "“2,3-Disubstituted 8-arylamino-3H-imidazo[4,5-g]quinazolines: a novel class of antitumor agents” (Eur J Med Chem, 2009)",
  "key": {"[1]": {"tested_on": "K562", "test": "Cytotoxicity against human K562 cells after 96 hrs by MTT assay", "assay_type": "functional, cell-based", "conditions": "K562, 96 h"}, "[2]": {"tested_on": "A549", "test": "Cytotoxicity against human A549 cells after 96 hrs by MTT assay", "assay_type": "functional, cell-based", "conditions": "A549, 96 h"}, "[3]": {"tested_on": "MDA-MB-231", "test": "Cytotoxicity against human MDA-MB-231 cells after 96 hrs by MTT assay", "assay_type": "functional, cell-based", "conditions": "MDA-MB-231, 96 h"}, "[4]": {"tested_on": "MOLT-4", "test": "Cytotoxicity against human MOLT4 cells after 96 hrs by MTT assay", "assay_type": "functional, cell-based", "conditions": "MOLT-4, 96 h"}, "[5]": {"tested_on": "PC-3", "test": "Cytotoxicity against human PC3 cells after 96 hrs by MTT assay", "assay_type": "functional, cell-based", "conditions": "PC-3, 96 h"}, "[6]": {"tested_on": "A549 (Homo sapiens)", "test": "Cell cycle arrest in human A549 cells assessed as accumulation at G0/G1 phase at 10 umol/L after 24 hrs by FACS relative to untreated control"}, "[7]": {"tested_on": "A549 (Homo sapiens)", "test": "Cell cycle arrest in human A549 cells assessed as accumulation at G2/M phase at 10 umol/L after 24 hrs by FACS relative to untreated control"}, "[8]": {"tested_on": "A549 (Homo sapiens)", "test": "Cell cycle arrest in human A549 cells assessed as accumulation at S phase at 10 umol/L after 24 hrs by FACS relative to untreated control"}},
  "data": [
    {"compound": "CCCc1nc2cc3c(Nc4ccc(OC)c(OC)c4)ncnc3cc2n1CCCOC", "values": [
      {"measurement": "IC50", "setting": "[1]", "value": 14.3, "unit": "µM"},
      {"measurement": "IC50", "setting": "[2]", "value": 11.5, "unit": "µM"},
      {"measurement": "IC50", "setting": "[3]", "value": 20.6, "unit": "µM"},
      {"measurement": "IC50", "setting": "[4]", "value": 10.9, "unit": "µM"},
      {"measurement": "IC50", "setting": "[5]", "value": 24.6, "unit": "µM"}
    ]},
    {"compound": "CCCCCCc1nc2cc3c(Nc4ccc(OC)cc4)ncnc3cc2n1CCCOCC", "values": [
      {"measurement": "IC50", "setting": "[1]", "value": 40.9, "unit": "µM"},
      {"measurement": "IC50", "setting": "[2]", "value": 39, "unit": "µM"},
      {"measurement": "IC50", "setting": "[3]", "value": "> 100", "unit": "µM"},
      {"measurement": "IC50", "setting": "[4]", "value": "> 100", "unit": "µM"},
      {"measurement": "IC50", "setting": "[5]", "value": "> 100", "unit": "µM"}
    ]},
    {"compound": "CCOCCCn1c(Cc2ccccc2)nc2cc3c(Nc4ccc(OC)cc4)ncnc3cc21", "values": [
      {"measurement": "IC50", "setting": "[1]", "value": 12.9, "unit": "µM"},
      {"measurement": "IC50", "setting": "[2]", "value": 22.1, "unit": "µM"},
      {"measurement": "IC50", "setting": "[3]", "value": 15.5, "unit": "µM"},
      {"measurement": "IC50", "setting": "[4]", "value": "> 100", "unit": "µM"},
      {"measurement": "IC50", "setting": "[5]", "value": "> 100", "unit": "µM"}
    ]},
    {"compound": "COc1ccc(Nc2ncnc3cc4c(cc23)nc(C(C)C)n4C(C)C)cc1", "values": [
      {"measurement": "IC50", "setting": "[1]", "value": "> 100", "unit": "µM"},
      {"measurement": "IC50", "setting": "[2]", "value": 6.26, "unit": "µM"},
      {"measurement": "IC50", "setting": "[3]", "value": 35.7, "unit": "µM"},
      {"measurement": "IC50", "setting": "[4]", "value": "> 100", "unit": "µM"},
      {"measurement": "IC50", "setting": "[5]", "value": "> 100", "unit": "µM"}
    ]},
    {"compound": "CCOCCCn1c(CC(C)C)nc2cc3c(Nc4ccc(OC)cc4)ncnc3cc21", "values": [
      {"measurement": "IC50", "setting": "[1]", "value": 14.4, "unit": "µM"},
      {"measurement": "IC50", "setting": "[2]", "value": 2.81, "unit": "µM"},
      {"measurement": "IC50", "setting": "[3]", "value": "> 100", "unit": "µM"},
      {"measurement": "IC50", "setting": "[4]", "value": "> 100", "unit": "µM"},
      {"measurement": "Activity", "setting": "[6]", "value": 81.47, "unit": "%"},
      {"measurement": "IC50", "setting": "[5]", "value": "> 100", "unit": "µM"},
      {"measurement": "Percentage of cells in G2/M phase", "setting": "[7]", "value": 3.12, "unit": "%"},
      {"measurement": "percent of cells in S phase", "setting": "[8]", "value": 15.41, "unit": "%"}
    ]},
    {"compound": "CCCCn1c(C(C)C)nc2cc3c(Nc4ccc(OC)c(OC)c4)ncnc3cc21", "values": [
      {"measurement": "IC50", "setting": "[1]", "value": 18.5, "unit": "µM"},
      {"measurement": "IC50", "setting": "[2]", "value": 5.58, "unit": "µM"},
      {"measurement": "IC50", "setting": "[3]", "value": 20, "unit": "µM"},
      {"measurement": "IC50", "setting": "[4]", "value": 6.63, "unit": "µM"},
      {"measurement": "IC50", "setting": "[5]", "value": "> 100", "unit": "µM"}
    ]},
    {"compound": "CCCCn1c(C(C)C)nc2cc3c(Nc4ccc(C)cc4)ncnc3cc21", "values": [
      {"measurement": "IC50", "setting": "[1]", "value": "> 100", "unit": "µM"},
      {"measurement": "IC50", "setting": "[2]", "value": 12.1, "unit": "µM"},
      {"measurement": "IC50", "setting": "[3]", "value": 10.7, "unit": "µM"},
      {"measurement": "IC50", "setting": "[4]", "value": "> 100", "unit": "µM"},
      {"measurement": "IC50", "setting": "[5]", "value": 24.8, "unit": "µM"}
    ]},
    {"compound": "COCCCn1c(C(C)C)nc2cc3c(Nc4ccc(OC)cc4)ncnc3cc21", "values": [
      {"measurement": "IC50", "setting": "[1]", "value": "> 100", "unit": "µM"},
      {"measurement": "IC50", "setting": "[2]", "value": 15.8, "unit": "µM"},
      {"measurement": "IC50", "setting": "[3]", "value": "> 100", "unit": "µM"},
      {"measurement": "IC50", "setting": "[4]", "value": "> 100", "unit": "µM"},
      {"measurement": "IC50", "setting": "[5]", "value": "> 100", "unit": "µM"}
    ]},
    {"compound": "CCCCn1c(C(C)C)nc2cc3c(Nc4ccc(F)cc4)ncnc3cc21", "values": [
      {"measurement": "IC50", "setting": "[1]", "value": 5.55, "unit": "µM"},
      {"measurement": "IC50", "setting": "[2]", "value": 4.25, "unit": "µM"},
      {"measurement": "IC50", "setting": "[3]", "value": 20, "unit": "µM"},
      {"measurement": "IC50", "setting": "[4]", "value": 11.4, "unit": "µM"},
      {"measurement": "Activity", "setting": "[6]", "value": 86.28, "unit": "%"},
      {"measurement": "IC50", "setting": "[5]", "value": 9.74, "unit": "µM"},
      {"measurement": "Percentage of cells in G2/M phase", "setting": "[7]", "value": 2.99, "unit": "%"},
      {"measurement": "percent of cells in S phase", "setting": "[8]", "value": 10.73, "unit": "%"}
    ]},
    {"compound": "CCCc1nc2cc3c(Nc4ccc(OC)cc4)ncnc3cc2n1CCCOCC", "values": [
      {"measurement": "IC50", "setting": "[1]", "value": "> 100", "unit": "µM"},
      {"measurement": "IC50", "setting": "[2]", "value": 18.3, "unit": "µM"},
      {"measurement": "IC50", "setting": "[3]", "value": "> 100", "unit": "µM"},
      {"measurement": "IC50", "setting": "[4]", "value": "> 100", "unit": "µM"},
      {"measurement": "IC50", "setting": "[5]", "value": "> 100", "unit": "µM"}
    ]},
    {"compound": "COc1ccc(Nc2ncnc3cc4c(cc23)nc(C(C)C)n4C2CCCCC2)cc1", "values": [
      {"measurement": "IC50", "setting": "[1]", "value": 19.3, "unit": "µM"},
      {"measurement": "IC50", "setting": "[2]", "value": 7.31, "unit": "µM"},
      {"measurement": "IC50", "setting": "[3]", "value": 21.1, "unit": "µM"},
      {"measurement": "IC50", "setting": "[4]", "value": 7.69, "unit": "µM"},
      {"measurement": "IC50", "setting": "[5]", "value": 23, "unit": "µM"}
    ]},
    {"compound": "CCCCn1c(C(C)C)nc2cc3c(Nc4ccc(OC)cc4)ncnc3cc21", "values": [
      {"measurement": "IC50", "setting": "[1]", "value": "> 100", "unit": "µM"},
      {"measurement": "IC50", "setting": "[2]", "value": 8.29, "unit": "µM"},
      {"measurement": "IC50", "setting": "[3]", "value": "> 100", "unit": "µM"},
      {"measurement": "IC50", "setting": "[4]", "value": 11.5, "unit": "µM"},
      {"measurement": "IC50", "setting": "[5]", "value": 18.9, "unit": "µM"}
    ]},
    {"compound": "CCOCCCn1c(C(C)C)nc2cc3c(Nc4ccc(OC)cc4)ncnc3cc21", "values": [
      {"measurement": "IC50", "setting": "[1]", "value": 5.18, "unit": "µM"},
      {"measurement": "IC50", "setting": "[2]", "value": 4.59, "unit": "µM"},
      {"measurement": "IC50", "setting": "[3]", "value": "> 100", "unit": "µM"},
      {"measurement": "IC50", "setting": "[4]", "value": "> 100", "unit": "µM"},
      {"measurement": "Activity", "setting": "[6]", "value": 80.38, "unit": "%"},
      {"measurement": "IC50", "setting": "[5]", "value": "> 100", "unit": "µM"},
      {"measurement": "Percentage of cells in G2/M phase", "setting": "[7]", "value": 3.4, "unit": "%"},
      {"measurement": "percent of cells in S phase", "setting": "[8]", "value": 16.22, "unit": "%"}
    ]},
    {"compound": "CC(C)c1nc2cc3c(Nc4ccccc4)ncnc3cc2n1C1CCCCC1", "values": [
      {"measurement": "IC50", "setting": "[1]", "value": 17.4, "unit": "µM"},
      {"measurement": "IC50", "setting": "[2]", "value": 22.1, "unit": "µM"},
      {"measurement": "IC50", "setting": "[3]", "value": "> 100", "unit": "µM"},
      {"measurement": "IC50", "setting": "[4]", "value": 2.83, "unit": "µM"},
      {"measurement": "IC50", "setting": "[5]", "value": 24.7, "unit": "µM"}
    ]},
    {"compound": "CCOCCCn1c(CC)nc2cc3c(Nc4ccc(OC)cc4)ncnc3cc21", "values": [
      {"measurement": "IC50", "setting": "[1]", "value": "> 100", "unit": "µM"},
      {"measurement": "IC50", "setting": "[2]", "value": 6.05, "unit": "µM"},
      {"measurement": "IC50", "setting": "[3]", "value": "> 100", "unit": "µM"},
      {"measurement": "IC50", "setting": "[4]", "value": "> 100", "unit": "µM"},
      {"measurement": "IC50", "setting": "[5]", "value": "> 100", "unit": "µM"}
    ]},
    {"compound": "COc1cc2ncnc(Nc3ccc(F)c(Cl)c3)c2cc1OCCCN1CCOCC1", "note": "[GEFITINIB]", "values": [
      {"measurement": "Activity", "setting": "[6]", "value": 76.12, "unit": "%"},
      {"measurement": "Percentage of cells in G2/M phase", "setting": "[7]", "value": 4.64, "unit": "%"},
      {"measurement": "percent of cells in S phase", "setting": "[8]", "value": 19.24, "unit": "%"}
    ]}
  ]
}
